Data as given in patent publication US11345694B2, “Antibacterial compounds” (DISCUVA LTD., priority 2017, dated 2022).
In brackets after ≈: the same amount, converted by molar mass. Read-outs that look alike come from different tables or passages of the source.

Experiments:
[1] = test system: E. coli NCTC 13441 (UPEC); assay: MIC broth microdilution; assay type: cell-based, Escherichia coli; details: for MIC: Escherichia coli, NCTC13441
How it was run: (§1)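 Read-out is visible growth: the MIC is the lowest compound concentration that prevents it after incubating 20-24 hours at 37° C in air. Compounds span 0.39-200 μM final (two-fold steps, up to 2% DMSO) in cation-adjusted Müller-Hinton broth, following CLSI guidelines for planktonic bacteria.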

[2] = test system: Escherichia coli K12 (EC); assay: MIC broth microdilution; assay type: cell-based
How it was run: as §1

[3] = test system: Pseudomonas aeruginosa ATCC 33359 (PA); assay: MIC broth microdilution; assay type: cell-based; details: for MIC: ATCC33359
How it was run: as §1

[4] = test system: Staphylococcus aureus ATCC 35556 (SA); assay: MIC broth microdilution; assay type: cell-based; details: for MIC: ATCC35556
How it was run: as §1

[5] = test system: Klebsiella pneumoniae ATCC 10031 (KP2); assay: MIC broth microdilution; assay type: cell-based; details: for MIC: ATCC10031
How it was run: (§2)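 Growth inhibition read after 20-24 hour incubation at 37° C in ambient atmosphere; MIC is the lowest compound concentration with no growth. Planktonic bacteria in cation-adjusted Müller-Hinton broth were exposed to two-fold dilutions (0.39-200 μM final; ≤2% DMSO final) per CLSI guidelines.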

[6] = test system: Acinetobacter baumannii ATCC 17978 (AB); assay: MIC broth microdilution; assay type: cell-based; details: for MIC: ATCC17978
How it was run: as §1

[7] = test system: human hepatocarcinoma cell line ATCC HB-8065 (HepG2); assay: Human cell viability (CellTiter-Glo); assay type: cell-based; details: HepG2 cells, 24 h incubation, CellTiter-Glo luminescence, 0.2-100 μM, read-out: IC50 values against the HepG2 cell line
How it was run: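 Cytotoxicity was read as CellTiter-Glo luminescence after 24 h compound exposure at 37° C., 5% CO2. Final concentrations spanned 0.2-100 μM in two-fold steps, in 1% FBS MEM with 1% DMSO, on cells plated a day earlier at 20,000/well. IC50 came from 4-parameter logistic regression.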

[8] = test system: K. pneumoniae NCTC 13438 (KP1); assay: MIC broth microdilution; assay type: cell-based, Klebsiella pneumoniae; details: for MIC: Klebsiella pneumoniae, NCTC13438
How it was run: as §2

Row | SMILES | MIC [1] | MIC [2] | MIC [3] | MIC [4] | MIC [5] | MIC [6] | IC50 ([7]; Homo sapiens) | MIC [8] | IC50 [7] | MIC UPEC [1] | MIC EC [2] | MIC PA [3] | MIC SA [4] | MIC KP2 [5] | MIC AB [6] | MIC KP1 [8]
1 | Cc1cc(-c2[nH]c(N)nc2-c2ccc3c(c2)N(CCO)C(=O)CO3)ccn1 [Example 66, 6-(2-Amino-4-(2-methylpyridin-4-yl)-1H-imidazol-5-yl)-4-(2-hydroxyethyl)-2H-benzo[b][1,4]oxazin-3(4H)-one] | 1 to 10 µM (≈ 0.365 to 3.65 µg/mL) | 1 to 10 µM (≈ 0.365 to 3.65 µg/mL) | > 100 µM | > 100 µM | ≤ 1 µM | > 100 µM | > 100 µM | 10 to 100 µM (≈ 3.65 to 36.5 µg/mL) |  |  |  |  |  |  |  | 
2 | Cc1cc(-c2[nH]c(N)nc2-c2ccc(O)c(O)c2)ccn1 [Example 71, 4-(2-Amino-5-(2-methylpyridin-4-yl)-1H-imidazol-4-yl)benzene-1,2-diol] | 10 to 100 µM (≈ 2.82 to 28.2 µg/mL) | 10 to 100 µM (≈ 2.82 to 28.2 µg/mL) | > 100 µM | > 100 µM | 1 to 10 µM (≈ 0.282 to 2.82 µg/mL) | > 100 µM | > 100 µM | > 100 µM |  |  |  |  |  |  |  | 
3 | CNc1nc(-c2ccc3c(c2)OCCO3)c(-c2ccnc(C)c2)[nH]1 [Example 74, 4-(2,3-dihydrobenzo[b][1,4]dioxin-6-yl)-N-methyl-5-(2-methylpyridin-4-yl)-1H-imidazol-2-amine] | 1 to 10 µM (≈ 0.322 to 3.22 µg/mL) | 1 to 10 µM (≈ 0.322 to 3.22 µg/mL) | > 100 µM | > 100 µM | ≤ 1 µM | > 100 µM | > 100 µM | 10 to 100 µM (≈ 3.22 to 32.2 µg/mL) |  |  |  |  |  |  |  | 
4 | Cc1cc(-c2[nH]c(N(C)C)nc2-c2ccc3c(c2)OCCO3)ccn1 [Example 75, 4-(2,3-Dihydrobenzo[b][1,4]dioxin-6-yl)-N,N-dimethyl-5-(2-methylpyridin-4-yl)-1H-imidazol-2-amine] | 10 to 100 µM (≈ 3.36 to 33.6 µg/mL) | 10 to 100 µM (≈ 3.36 to 33.6 µg/mL) | > 100 µM | > 100 µM | 1 to 10 µM (≈ 0.336 to 3.36 µg/mL) | > 100 µM | > 100 µM | > 100 µM |  |  |  |  |  |  |  | 
5 | Cc1cc(-c2[nH]c(=S)[nH]c2-c2ccc3c(c2)OCCO3)ccn1 [Example 81, 4-(2,3-Dihydrobenzo[b][1,4]dioxin-6-yl)-5-(2-methylpyridin-4-yl)-1,3-dihydro-2H-imidazole-2-thione] | 10 to 100 µM (≈ 3.25 to 32.5 µg/mL) | 10 to 100 µM (≈ 3.25 to 32.5 µg/mL) | > 100 µM | > 100 µM | ≤ 1 µM | > 100 µM | > 100 µM | > 100 µM |  |  |  |  |  |  |  | 
6 | Cc1cc(-c2[nH]c(Cl)nc2-c2ccc3c(c2)OCCO3)ccn1 [Example 83, 4-(2-Chloro-4-(2,3-dihydrobenzo[b][1,4]dioxin-6-yl)-1H-imidazol-5-yl)-2-methylpyridine] | 1 to 10 µM (≈ 0.328 to 3.28 µg/mL) | 1 to 10 µM (≈ 0.328 to 3.28 µg/mL) | > 100 µM | > 100 µM | ≤ 1 µM | > 100 µM | > 100 µM | > 100 µM |  |  |  |  |  |  |  | 
7 | Cc1cc(-c2[nH]c(C(=O)O)nc2-c2ccc3c(c2)OCCO3)ccn1 [Example 86, 4-(2,3-dihydrobenzo[b][1,4]dioxin-6-yl)-5-(2-methylpyridin-4-yl)-1H-imidazole-2-carboxylate] |  |  |  |  |  |  |  |  | > 100 µM | D (a MIC of over 100 is assigned the letter D) | D (a MIC of over 100 is assigned the letter D) | D (a MIC of over 100 is assigned the letter D) | D (a MIC of over 100 is assigned the letter D) | B (a MIC of from 1 to 10 is assigned the letter B) | D (a MIC of over 100 is assigned the letter D) | D (a MIC of over 100 is assigned the letter D)
8 | Cc1cc(-c2nc(N)[nH]c2-c2ccc3c(c2)N(CCO)CCO3)ccn1 [Example 90, 2-(6-(2-Amino-4-(2-methylpyridin-4-yl)-1H-imidazol-5-yl)-2,3-dihydro-4H-benzo[b][1,4]oxazin-4-yl)ethan-1-ol] | ≤ 1 µM | 1 to 10 µM (≈ 0.351 to 3.51 µg/mL) | > 100 µM | > 100 µM | ≤ 1 µM | > 100 µM | > 100 µM | 1 to 10 µM (≈ 0.351 to 3.51 µg/mL) |  |  |  |  |  |  |  | 
9 | Cc1cc(-c2[nH]c(N)nc2-c2ccc3c(c2)N(CCN)CCO3)ccn1 [Example 91, 4-(4-(2-Aminoethyl)-3,4-dihydro-2H-benzo[b][1,4]oxazin-6-yl)-5-(2-methylpyridin-4-yl)-1H-imidazol-2-amine] | ≤ 1 µM | ≤ 1 µM | > 100 µM | > 100 µM | ≤ 1 µM | > 100 µM | > 100 µM | ≤ 1 µM |  |  |  |  |  |  |  | 

Second part, led by results:

Row | MIC [1] | MIC [2] | MIC [3] | MIC [4] | MIC [5] | MIC [6] | IC50 ([7]; Homo sapiens) | MIC [8] | IC50 [7] | SMILES | MIC UPEC [1] | MIC EC [2] | MIC PA [3] | MIC SA [4] | MIC KP2 [5] | MIC AB [6] | MIC KP1 [8]
10 | 1 to 10 µM (≈ 0.326 to 3.26 µg/mL) | 1 to 10 µM (≈ 0.326 to 3.26 µg/mL) | > 100 µM | > 100 µM | ≤ 1 µM | > 100 µM | > 100 µM | 10 to 100 µM (≈ 3.26 to 32.6 µg/mL) |  | Cc1cc(-c2[nH]c(N)nc2-c2ccc3c(c2F)OCCO3)ccn1 [Example 60, 4-(5-Fluoro-2,3-dihydrobenzo[b][1,4]dioxin-6-yl)-5-(2-methylpyridin-4-yl)-1H-imidazol-2-amine] |  |  |  |  |  |  | 
11 | 1 to 10 µM (≈ 0.393 to 3.93 µg/mL) | 1 to 10 µM (≈ 0.393 to 3.93 µg/mL) | > 100 µM | > 100 µM | ≤ 1 µM | > 100 µM | > 100 µM | 1 to 10 µM (≈ 0.393 to 3.93 µg/mL) |  | COC(=O)CCN1CCOc2ccc(-c3nc(N)[nH]c3-c3ccnc(C)c3)cc21 [Example 61, Methyl 3-(6-(2-amino-5-(2-methylpyridin-4-yl)-1H-imidazol-4-yl)-2,3-dihydro-4H-benzo[b][1,4]oxazin-4-yl)propanoate] |  |  |  |  |  |  | 
12 | 10 to 100 µM (≈ 3.49 to 34.9 µg/mL) | 10 to 100 µM (≈ 3.49 to 34.9 µg/mL) | > 100 µM | > 100 µM | 1 to 10 µM (≈ 0.349 to 3.49 µg/mL) | > 100 µM | > 100 µM | > 100 µM |  | CC(=O)N1CCOc2ccc(-c3nc(N)[nH]c3-c3ccnc(C)c3)cc21 [Example 63, 1-(6-(2-Amino-5-(2-methylpyridin-4-yl)-1H-imidazol-4-yl)-2,3-dihydro-4H-benzo[b][1,4]oxazin-4-yl)ethan-1-one] |  |  |  |  |  |  | 
13 | > 100 µM | > 100 µM | > 100 µM | > 100 µM | 1 to 10 µM (≈ 0.325 to 3.25 µg/mL) | > 100 µM | > 100 µM | > 100 µM |  | Cc1cc(-c2sc(N)nc2-c2ccc3c(c2)OCCO3)ccn1 [Example 80, 4-(2,3-Dihydrobenzo[b][1,4]dioxin-6-yl)-5-(2-methylpyridin-4-yl)thiazol-2-amine] |  |  |  |  |  |  | 
14 | > 100 µM | > 100 µM | > 100 µM | > 100 µM | 1 to 10 µM (≈ 0.35 to 3.5 µg/mL) | > 100 µM | > 100 µM | > 100 µM |  | CNC(=O)c1nc(-c2ccnc(C)c2)c(-c2ccc3c(c2)OCCO3)[nH]1 [Example 85, 5-(2,3-Dihydrobenzo[b][1,4]dioxin-6-yl)-N-methyl-4-(2-methylpyridin-4-yl)-1H-imidazole-2-carboxamide] |  |  |  |  |  |  | 
15 | 1 to 10 µM (≈ 0.322 to 3.22 µg/mL) | 1 to 10 µM (≈ 0.322 to 3.22 µg/mL) | > 100 µM | > 100 µM | ≤ 1 µM | > 100 µM | > 100 µM | 10 to 100 µM (≈ 3.22 to 32.2 µg/mL) |  | Cc1cc(-c2[nH]c(CN)nc2-c2ccc3c(c2)OCCO3)ccn1 [Example 87, (4-(2,3-Dihydrobenzo[b][1,4]dioxin-6-yl)-5-(2-methylpyridin-4-yl)-1H-imidazol-2-yl)methanamine] |  |  |  |  |  |  | 
16 | 1 to 10 µM (≈ 0.364 to 3.64 µg/mL) | 1 to 10 µM (≈ 0.364 to 3.64 µg/mL) | > 100 µM | > 100 µM | ≤ 1 µM | > 100 µM | > 100 µM | 10 to 100 µM (≈ 3.64 to 36.4 µg/mL) |  | Cc1cc(-c2nc(N)[nH]c2-c2ccc3c(c2)N(CCN)C(=O)CO3)ccn1 [Example 89, 6-(2-Amino-4-(2-methylpyridin-4-yl)-1H-imidazol-5-yl)-4-(2-aminoethyl)-2H-benzo[b][1,4]oxazin-3(4H)-one] |  |  |  |  |  |  | 
17 | ≤ 1 µM | ≤ 1 µM | > 100 µM | > 100 µM | ≤ 1 µM | > 100 µM | 25 to 100 µM | 1 to 10 µM (≈ 0.375 to 3.75 µg/mL) |  | Cc1cc(-c2[nH]c(N)nc2-c2ccc3c(c2)N(C2CCCC2)CCO3)ccn1 [Example 94, 4-(4-Cyclopentyl-3,4-dihydro-2H-benzo[b][1,4]oxazin-6-yl)-5-(2-methylpyridin-4-yl)-1H-imidazol-2-amine] |  |  |  |  |  |  | 
